In publication PMC6287599, “2,6-Bis(2-Benzimidazolyl)Pyridine (BBP) Is a Potent and Selective Inhibitor of Small Conductance Calcium-Activated Potassium (SK) Channels” (Frontiers in Pharmacology, 2018):

Tests used:
hBK = biological target: T1, hBK (Homo sapiens, UniProt Q12791); assay: Manual whole cell patch clamp, HEK293 transiently transfected with hBK; assay type: cell-based; settings: BBP 1 μM, manual patch clamp, 100 nM free intracellular calcium, n = 8
T1 construct: expressed in transfected cells; host or cells: HEK293 (transient, co-transfected with eGFP)
Method: HEK293 cells were transiently co-transfected with the plasmid of interest (hBK, hSK1, hSK2, hSK3 WT, rSK3 H491N, or hIK) and eGFP using standard Lipofectamine™ 2000 (Thermo Fisher Scientific, Waltham, Massachussets, USA) transfection protocols. After transfection, cells were incubated overnight before the experiments.
Manual patch clamp experiments were performed at room temperature in the whole cell configuration with a HEKA EPC9 amplifier and the Patchmaster software (HEKA Elektronik, Ludwigshafen, Germany). All currents were elicited every 2 s using an incremental 200 ms voltage-ramp protocol starting at −80 mV and finishing at +80 mV from a holding potential of 0 mV. […]
To assess the effect of BBP on other calcium-activated potassium channels (hBK, hSK3 WT, rSK3 H491N, and hIK), each individual current was first normalized to its cell size using membrane's capacitance (pA/pF) before statistical analysis. […] Statistical significance between saline and the effect of both BBP and the corresponding reference compound was determined for each channel using one-way ANOVA analysis. […]
After testing BBP on the three SK channel subtypes, we decided to explore whether other calcium-activated potassium channels were affected by the compound. […] Finally, a positive control was used to inhibit the remaining current and quantify the total effect of BBP. […]

hSK2 = hSK2 (Homo sapiens, UniProt Q9H2S1); assay: Automated patch clamp (QPatch 16), whole cell, stable HEK293 cell line expressing hSK2; assay type: cell-based; settings: HEK stable line, 400 nM free intracellular calcium, mean ± SEM, n = 8
Method: Three different stable HEK293 cell lines expressing hSK1, hSK2 or hSK3 (NeuroSearch A/S, Ballerup, Denmark) and a CHO stable cell line expressing hERG (University of Copenhagen, Copenhagen, Denmark) were used for automated patch clamp. These cells were cultivated and prepared as previously described (Skarsfeldt et al., [2016]).
Automated patch clamp (QPatch 16, Sophion, Denmark) on SK-expressing HEK293 cell lines was conducted as previously described (Simó-Vicens et al., [2017b]). Briefly, SK currents were elicited by voltage-ramps starting at −80 mV and finishing at +80 mV from a holding potential of 0 mV. Extracellular solution contained 0.1 mM CaCl2, 3 mM MgCl2, 154 mM KCl, 10 mM HEPES and 10 mM glucose with pH 7.4. Intracellular solution for SK experiments contained 8.106 mM CaCl2 (final free calcium concentration of 400 nM), 1.167 mM MgCl2, 10 mM EGTA, 154 mM KCl, 10 mM HEPES, 31.25/ 10 mM KOH/EGTA and 15 mM KOH with pH 7.2. Automated patch clamp on hERG-expressing CHO cell line was performed also as previously described (Skarsfeldt et al., [2016]).
Individual IC50 values were calculated for each cell with the built-in nonlinear fit log(inhibitor) vs. normalized response equation:
Where Y is the normalized response, from 100, corresponding to current recorded during saline perfusion, down to 0, corresponding to currents recorded in the presence of bicuculline methiodide 100 μM. […]

T1 sequence (Q12791 whole entry): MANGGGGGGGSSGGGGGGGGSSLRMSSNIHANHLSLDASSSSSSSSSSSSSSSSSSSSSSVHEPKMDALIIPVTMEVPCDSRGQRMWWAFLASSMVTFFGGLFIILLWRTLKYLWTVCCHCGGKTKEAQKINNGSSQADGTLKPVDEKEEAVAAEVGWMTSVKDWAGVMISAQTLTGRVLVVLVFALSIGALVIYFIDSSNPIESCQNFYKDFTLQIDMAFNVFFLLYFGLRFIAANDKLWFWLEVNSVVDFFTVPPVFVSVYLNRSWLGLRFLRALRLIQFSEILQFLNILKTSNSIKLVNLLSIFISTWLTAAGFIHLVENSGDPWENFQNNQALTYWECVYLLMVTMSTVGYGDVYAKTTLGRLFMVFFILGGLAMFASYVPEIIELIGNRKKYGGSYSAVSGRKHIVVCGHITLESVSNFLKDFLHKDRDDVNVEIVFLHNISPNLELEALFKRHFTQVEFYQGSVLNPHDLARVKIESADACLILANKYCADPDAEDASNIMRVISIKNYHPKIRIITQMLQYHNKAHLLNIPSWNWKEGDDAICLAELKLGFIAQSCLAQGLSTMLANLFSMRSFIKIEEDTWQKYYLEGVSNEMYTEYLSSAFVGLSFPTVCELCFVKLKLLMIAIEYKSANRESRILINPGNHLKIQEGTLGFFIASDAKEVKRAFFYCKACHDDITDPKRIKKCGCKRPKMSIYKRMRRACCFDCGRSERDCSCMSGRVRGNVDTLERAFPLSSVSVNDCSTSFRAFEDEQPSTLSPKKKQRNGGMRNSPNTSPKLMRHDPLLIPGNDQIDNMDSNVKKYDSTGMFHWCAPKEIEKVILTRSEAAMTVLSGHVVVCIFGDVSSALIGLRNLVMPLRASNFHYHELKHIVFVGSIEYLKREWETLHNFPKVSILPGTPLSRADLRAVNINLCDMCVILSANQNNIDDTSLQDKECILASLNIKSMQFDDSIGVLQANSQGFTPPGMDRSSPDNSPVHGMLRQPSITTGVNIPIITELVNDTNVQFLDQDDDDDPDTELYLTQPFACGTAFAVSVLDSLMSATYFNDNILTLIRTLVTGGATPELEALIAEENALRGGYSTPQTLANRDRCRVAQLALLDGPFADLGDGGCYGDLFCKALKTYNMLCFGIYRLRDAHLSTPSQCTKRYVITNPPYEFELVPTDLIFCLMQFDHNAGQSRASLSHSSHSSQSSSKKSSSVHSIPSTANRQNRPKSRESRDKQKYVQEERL

- Reduction of hBK current (hBK): 19 ± 6%
- IC50 (hSK2): 400 ± 100 nM
Structure (SMILES): c1cc(-c2nc3ccccc3[nH]2)nc(-c2nc3ccccc3[nH]2)c1 [BBP, 2,6-Bis(2-benzimidazolyl)pyridine]
